Laboratory results taken from PubChem BioAssay (NCI).
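Compound exposure: 48 hours, 5 concentrations, 96-well plates. At the TGI there is no net growth.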

Assays:
Assay in all cases: DTP human tumour cell line panel, 48 h
786-0 renal = tested on: 786-0 renal
SNB-19 CNS = tested on: SNB-19 CNS
TK-10 renal = tested on: TK-10 renal
SF-268 CNS = tested on: SF-268 CNS
LOX IMVI melanoma = tested on: LOX IMVI melanoma
UACC-257 melanoma = tested on: UACC-257 melanoma
SK-MEL-28 melanoma = tested on: SK-MEL-28 melanoma
SF-539 CNS = tested on: SF-539 CNS
PC-3 prostate = tested on: PC-3 prostate
A498 renal = tested on: A498 renal

SMILES | TGI (786-0 renal) | TGI (SNB-19 CNS) | TGI (TK-10 renal) | TGI (SF-268 CNS) | TGI (LOX IMVI melanoma) | TGI (UACC-257 melanoma) | TGI (SK-MEL-28 melanoma) | TGI (SF-539 CNS) | TGI (PC-3 prostate) | TGI (A498 renal)
CN1C(=O)N(C)C2(CCN(CCCCCCF)CC2)C1=O | > 100 µM | > 100 µM | > 100 µM | > 100 µM | > 100 µM | > 100 µM | > 100 µM | > 100 µM | > 100 µM | 
CCOC(=O)CC[C@H](N)C(=O)N[C@H](Cc1ccc(N(CCCl)CCCl)cc1)C(=O)OCC | 5.32 µM | 99 µM | 8.51 µM | 11.3 µM | > 39.1 µM | > 49.2 µM | > 60.7 µM | 8.83 µM | 17.7 µM | 74.5 µM
COP(C)(=O)C(Cc1c[nH]c2ccccc12)NC(=O)OCc1ccccc1 (centres undefined) | > 100 µM | > 100 µM | > 100 µM | > 100 µM | > 100 µM | > 100 µM | > 100 µM | > 100 µM | > 100 µM | > 100 µM
NCCCC[C@H](N)C(=O)Nc1ccc(-c2nc3ccccc3s2)cc1Cl | 8.11 µM | 32.9 µM | 26.2 µM | 25.5 µM |  | 32.4 µM | 23.4 µM |  | 31.2 µM | 2.07 µM
CC1(C)CC[C@]2(C(=O)O)[C@H](O)C[C@]3(C)C(=CC[C@@H]4[C@@]5(C)CC[C@H](OC6OC(C(=O)O)C(O)C(O)C6O)C(C)(C)[C@@H]5CC[C@]43C)[C@@H]2C1 (some centres undefined) | > 100 µM | > 100 µM |  | > 100 µM | > 100 µM | > 100 µM | 37.1 µM |  | > 100 µM | 37.4 µM
Cc1cc(C)c(N=Nc2c(O)c(S(=O)(=O)O)cc3cc(S(=O)(=O)O)ccc23)cc1C | > 100 µM | > 100 µM | > 100 µM | > 100 µM | > 100 µM | > 100 µM | > 100 µM |  | > 100 µM | > 100 µM
